Results published in patent US11731977B2, “SGC stimulators” (Cyclerion Therapeutics, Inc., priority 2016, dated 2023).
Read-outs that look alike come from different tables or passages of the source.

Key:
[1] = test system: rats; test: Inflammatory pain: carrageenan, paw pressure test (Example 13); assay type: in vivo, rat; conditions: Compound I-1 p.o. 10 mg/kg, 120 minutes after treatment
[2] = target: T1, sGC enzyme (Homo sapiens, UniProt Q02108+Q02153); test: cGMP GloSensor cell-based assay, synergy with NO at varied DETA-NO (Example 2b); conditions: for EC50: HEK293 GloSensor cells, read-out: EC50 (Absolute EC50)
T1 construct: sGC enzyme activity values in HEK cells, determined by the GloSensor assay; host or cells: HEK293 cells stably expressing GloSensor 40F cGMP biosensor
T1 sequence (Q02153 1-619): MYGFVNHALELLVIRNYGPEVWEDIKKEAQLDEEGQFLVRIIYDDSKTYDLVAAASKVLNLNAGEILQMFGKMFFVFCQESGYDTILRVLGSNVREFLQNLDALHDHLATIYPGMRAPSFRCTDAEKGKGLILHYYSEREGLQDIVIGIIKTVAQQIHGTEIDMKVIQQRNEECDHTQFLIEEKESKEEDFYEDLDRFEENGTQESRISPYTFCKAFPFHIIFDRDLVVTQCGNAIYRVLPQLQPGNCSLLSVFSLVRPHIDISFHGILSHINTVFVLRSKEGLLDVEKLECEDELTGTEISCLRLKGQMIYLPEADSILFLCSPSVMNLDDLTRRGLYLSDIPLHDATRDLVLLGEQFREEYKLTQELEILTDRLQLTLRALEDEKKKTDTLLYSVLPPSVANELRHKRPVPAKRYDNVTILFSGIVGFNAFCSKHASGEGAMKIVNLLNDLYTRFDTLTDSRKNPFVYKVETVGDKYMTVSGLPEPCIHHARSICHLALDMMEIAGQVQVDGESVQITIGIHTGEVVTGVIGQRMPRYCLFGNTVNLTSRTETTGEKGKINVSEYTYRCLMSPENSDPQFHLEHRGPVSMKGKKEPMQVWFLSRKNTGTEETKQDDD
T1 sequence (Q02108 1-690): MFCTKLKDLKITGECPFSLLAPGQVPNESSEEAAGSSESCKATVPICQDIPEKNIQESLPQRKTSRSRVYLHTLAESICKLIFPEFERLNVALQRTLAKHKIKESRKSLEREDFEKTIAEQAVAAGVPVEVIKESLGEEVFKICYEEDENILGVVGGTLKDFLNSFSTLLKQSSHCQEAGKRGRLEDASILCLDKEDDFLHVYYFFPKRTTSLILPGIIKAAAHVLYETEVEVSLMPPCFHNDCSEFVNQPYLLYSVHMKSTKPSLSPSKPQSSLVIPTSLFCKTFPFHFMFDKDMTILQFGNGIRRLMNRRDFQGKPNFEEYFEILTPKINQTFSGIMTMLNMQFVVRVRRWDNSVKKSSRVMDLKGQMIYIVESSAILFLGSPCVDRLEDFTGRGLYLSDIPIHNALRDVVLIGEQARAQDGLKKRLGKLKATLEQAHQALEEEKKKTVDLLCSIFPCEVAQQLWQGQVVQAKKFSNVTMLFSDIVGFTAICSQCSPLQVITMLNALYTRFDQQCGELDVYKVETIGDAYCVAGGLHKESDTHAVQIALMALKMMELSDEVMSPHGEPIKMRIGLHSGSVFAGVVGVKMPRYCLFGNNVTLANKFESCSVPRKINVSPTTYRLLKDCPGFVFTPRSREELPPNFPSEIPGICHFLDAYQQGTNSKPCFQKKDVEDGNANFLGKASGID
Protocol: HEK293 cells expressing GloSensor™ 40F cGMP (Part No: CS182801, Promega) were used to evaluate the synergy of the test compounds with NO. Multiple assays where run in which the concentrations of test compound also well as the concentration of Diethylenetriamine NONOate (DETA-NONOate) were varied to determine the synergy of the test compound with NO. Test compounds and Diethylenetriamine NONOate (DETA-NONOate or DETA-NO) were diluted to 3 mM (20×) in serum-free CO2 independent medium and serially diluted at 4× dilutions to create 5× dose curve from which 10 ul was added to the wells (x μM concentration for test compound solution and y μM concentration for DETA-NO solution; wherein x is one of the following final concentrations: 30000 nM, 7500 nM, 1875 nM, 468.8 nM, 117.2 nM, 29.29 nM, 7.320 nM, 1.830 nM, 0.460 nM, 0.114 nM, and 0.029 nM and y is one of the following final concentrations: 30 μM, 10 μM, 3.33 μM 1.11 μM, and 0 μM).
Following the analysis as described above, Table 2b summarizes results obtained for Compound I-1 with the various DETA-NO amount in this assay.

Fc1ccccc1Cc1nc(-c2nc(C(F)(F)F)n[nH]2)cn2ccnc12 [Compound I-1, 8-(2-fluorobenzyl)-6-(3-(trifluoromethyl)-1H-1,2,4-triazol-5-yl)imidazo[1,2-a]pyrazine]
% of activity vs. vehicle [1]: 38% | EC50 ([2]; [DETA-NO] 0 uM): 100 to 1000 nM | EC50 ([2]; [DETA-NO] 1.11 uM): 100 to 1000 nM | EC50 ([2]; [DETA-NO] 3.33 uM): 100 to 1000 nM | EC50 ([2]; [DETA-NO] 10 uM): 100 to 1000 nM | EC50 ([2]; [DETA-NO] 30 uM): ≤ 100 nM | synergy with NO to stimulate sGC ([2]; varied DETA-NO concentrations): synergizes with NO
